Assays:
urease = test system: urease; design: method as in PMID 30086567; conditions: Fig. 10; cited from earlier work
[1] = molecular target: metabotropic glutamate receptor 1; design: method as in PMID 19674894; conditions: Fig. 10; cited from earlier work
glucokinase = molecular target: glucokinase; design: method as in PMID 19282189; conditions: Fig. 10; cited from earlier work
Adenosine A2A receptor = molecular target: Adenosine A2A receptor; design: method as in PMID 21210664; conditions: Fig. 10; cited from earlier work
stearoyl-CoA desaturase = molecular target: stearoyl-CoA desaturase; design: method as in PMID 19541482; conditions: Fig. 10; cited from earlier work
HEK293 cells = assay: FMP assay at HEK293 cells; format: cell-based; conditions: concentrations up to 300 μM, data not shown
h5-HT3A = molecular target: T1, h5-HT3A (Homo sapiens, UniProt P46098); assay: FMP assay at h5-HT3A-HEK293 cells; format: cell-based; conditions: concentrations up to 300 μM, data not shown
T1 construct: expressed in transfected cells
T1 sequence (P46098 24-478): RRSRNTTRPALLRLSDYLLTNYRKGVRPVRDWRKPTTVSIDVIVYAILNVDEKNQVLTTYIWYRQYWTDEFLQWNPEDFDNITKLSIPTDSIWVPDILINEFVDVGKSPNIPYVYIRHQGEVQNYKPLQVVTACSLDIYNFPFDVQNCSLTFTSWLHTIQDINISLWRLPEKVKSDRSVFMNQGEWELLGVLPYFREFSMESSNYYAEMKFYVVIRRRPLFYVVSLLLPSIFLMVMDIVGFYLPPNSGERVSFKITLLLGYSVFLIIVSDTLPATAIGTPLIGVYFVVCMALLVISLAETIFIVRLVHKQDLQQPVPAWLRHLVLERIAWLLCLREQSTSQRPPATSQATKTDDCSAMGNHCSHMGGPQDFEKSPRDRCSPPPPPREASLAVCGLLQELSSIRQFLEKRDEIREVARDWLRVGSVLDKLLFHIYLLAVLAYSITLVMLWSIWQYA

ZAC [2] = molecular target: T2, ZAC (Homo sapiens, UniProt Q401N2); assay: FMP assay at ZAC-HEK293 cells; format: cell-based; conditions: ZAC-HEK293 cells, FMP assay, n = 4
T2 sequence (Q401N2 26-412): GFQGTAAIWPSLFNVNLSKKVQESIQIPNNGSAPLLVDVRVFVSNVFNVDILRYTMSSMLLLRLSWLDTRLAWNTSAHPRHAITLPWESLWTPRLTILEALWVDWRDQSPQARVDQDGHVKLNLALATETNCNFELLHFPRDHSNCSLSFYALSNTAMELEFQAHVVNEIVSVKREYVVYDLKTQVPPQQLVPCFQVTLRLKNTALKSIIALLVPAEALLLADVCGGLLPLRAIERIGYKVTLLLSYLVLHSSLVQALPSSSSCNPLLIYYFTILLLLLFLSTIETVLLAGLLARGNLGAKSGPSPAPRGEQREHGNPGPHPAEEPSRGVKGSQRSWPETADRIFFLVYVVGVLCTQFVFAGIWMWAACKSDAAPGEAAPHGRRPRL
Protocol: The screening of the 1,680 compounds in the compound library for antagonist activity at the ZAC-HEK293 cell line was performed in the FMP assay essentially as previously described. The day before the assay, cells were split into poly-D-lysine-coated black 96-well plates with clear bottoms (BD Biosciences, Palo Alto, CA) (6 × 10^4 cells/well). The following day, the culture medium was aspirated and the wells were washed once with 100 μl assay buffer (140 mM NaCl, 4.7 mM KCl, 2.5 mM CaCl2, 1.2 mM MgCl2, 11 mM HEPES, 10 mM D-glucose, pH 7.4), after which 100 μl assay buffer supplemented with FMP dye (0.5 mg/ml) and the various test compounds were added to the wells. The plate was then incubated at 37 °C for 30 min and assayed in a NOVOStar plate reader (BMG Labtechnologies, Offenburg, Germany) measuring emission at 560 nm caused by excitation at 530 nm before and up to 1 min after the addition of 33 μl of agonist solution. In the screening, the 1,680 compounds in the compound library were tested at assay concentrations in the 10–30 μM range, using Cu^2+ as agonist at an assay concentration of 200 μM.
Data from the FMP assay was analysed using KaleidaGraph 3.08 (Synergy Software, Reading, PA). Concentration-response curves for Cu^2+ and concentration-inhibition curves for compound 1 were constructed based on the difference in the relative fluorescence units (RFU) between the maximal fluorescence recorded before and after application of Cu^2+. The data were fitted to sigmoidal curves with variable slopes using nonlinear regression, and EC50 (Cu^2+) and IC50 (compound 1) values were derived from these equations.

Hec1/Nek2 interaction = test system: Hec1/Nek2 interaction; design: method as in PMID 18922912; conditions: Fig. 10; cited from earlier work
Adenosine A1 receptor = molecular target: Adenosine A1 receptor; design: method as in PMID 11262085; conditions: Fig. 10; cited from earlier work
necroptosis = molecular target: necroptosis; design: method as in PMID 30400632; conditions: Fig. 10; cited from earlier work
ZAC [3] = molecular target: T2, ZAC; conditions: Zn2+ (1 mM) as agonist, TEVC; cited from earlier work

O=C(Nc1nc(Cc2nnc(SCc3ccc(F)cc3)o2)cs1)c1ccccc1 [Compound 7h]
IC50 (urease): 2200 nM

CC(C)Nc1cc(-c2csc(N(C)C(=O)c3ccc(F)cc3)n2)ncn1 [Compound 27]
IC50 [1]: 5.1 nM

Cc1csc(NC(=O)c2cc(Oc3ccc(S(C)(=O)=O)cc3)cc(OC(C)C)c2)n1 [Compound 27e]
EC50 (glucokinase): 330 nM

CC(C)(C)CC(=O)Nc1c(F)cc(C(=O)Nc2nccs2)cc1F [Compound 28]
Ki (Adenosine A2A receptor): 5.9 nM

CCNc1ccc(C(=O)Nc2ncc(Cc3cccc(C(F)(F)F)c3)s2)cc1OCCO [Compound 37c]
IC50 (stearoyl-CoA desaturase): 0.04 nM

[Cl][Cu][Cl] [Cu^2+, CuCl2]
Agonist response (HEK293 cells): did not evoke any responses | Agonist response (h5-HT3A): did not evoke any responses | pEC50 ± S.E.M. (agonist) (ZAC [2]): 4.59 ± 0.17 | EC50 (ZAC [2]; read-out: EC50 (agonist)): 26 µM

Cc1ccc(-c2csc(NC(=O)c3ccccc3)n2)c(C)c1 [INH1]
IC50 (Hec1/Nek2 interaction): in uM range

COc1ccc(C(=O)Nc2nc(-c3ccccc3)cs2)cc1 [LUF5433]
IC50 (Adenosine A1 receptor): 32 nM

CCn1c(SCc2ccc(C(=O)Nc3nccs3)cc2)nnc1-c1ccc(N)cc1 [NTB451]
Ki (necroptosis): 7.9 µM

COc1cc2c3cc1Oc1cc(ccc1O)C[C@@H]1c4c(cc(OC)c(O)c4Oc4ccc(cc4)C[C@@H]3N(C)CC2)CC[N+]1(C)C [TC, tubocurarine]
Fitted inhibition range (ZAC [3]): ~ 94%

Source: paper PMC9979163, “Discovery and functional characterization of N-(thiazol-2-yl)-benzamide analogs as the first class of selective antagonists of the Zinc-Activated Channel (ZAC)” (Biochemical pharmacology, 2021)
